# Measurements taken from patent US10343992B2, “1-cyano-pyrrolidine compounds as USP30 inhibitors” (MISSION THERAPEUTICS LIMITED, priority 2015, dated 2019).
# Molecular target: USP30 (Homo sapiens (Human), UniProt Q70CQ3)
# Experiment: USP30 biochemical FP or FI IC50 assay
# Details: read-out: IC50 range
# Description: USP30 Biochemical IC50 Assay
# Dilution plates were prepared at 21 times the final concentration (2100 μM for a final concentration of 100 μM) in 50% DMSO in a 96-well polypropylene V-bottom plate (Greiner #651201). A typical 8-point dilution series would be 100, 30, 10, 3, 1, 0.3, 0.1, 0.03 μM final. Reactions were performed in duplicate in black 384 well plates (small volume, Greiner 784076) in a final reaction volume of 21 μl. Either 1 μl of 50% DMSO or diluted compound was added to the plate. USP30 was diluted in reaction buffer (40 mM Tris, pH 7.5, 0.005% Tween 20, 0.5 mg/ml BSA, 5 mM—beta-mercaptoethanol) to the equivalent of 0.05 μl/well and 10 μl of diluted USP30 was added to the compound. Enzyme and compound were incubated for 30 min at room temp. Reactions were initiated by the addition of 50 nM of TAMRA labelled peptide linked to ubiquitin via an iso-peptide bond as fluorescence polarisation substrate. Reactions were read immediately after addition of substrate and following a 2 hr incubation at room temperature. Readings were performed on a Pherastar Plus (BMG Labtech). λ Excitation 540 nm; λ Emission 590 nm.
# USP30 Biochemical Fluorescence Intensity IC50 Assay
# Dilution plates were prepared at 21 times the final concentration (2100 μM for a final concentration of 100 μM) in 50% DMSO in a 96-well polypropylene V-bottom plate (Greiner #651201). A typical 8-point dilution series would be 100, 30, 10, 3, 1, 0.3, 0.1, 0.03 μM final. Reactions were performed in duplicate in black 384 well plates (small volume, Greiner 784076) in a final reaction volume of 21 μl.
# Either 1 μl of 50% DMSO or diluted compound was added to the plate. USP30 was diluted in reaction buffer (40 mM Tris, pH 7.5, 0.005% Tween 20, 0.5 mg/ml BSA, 5 mM—beta-mercaptoethanol) to the equivalent of 0.001 μl/well and 10 μl of diluted USP30 was added to the compound. Enzyme and compound were incubated for 30 min at room temp. Reactions were initiated by the addition of Ubiquitin-Rhodamine 110 (U-555; Boston Biochem) at a final concentration of 100 nM. Reactions were read immediately after addition of substrate and following a 2 h incubation at room temperature. Readings were performed on a Pherastar Plus (BMG Labtech). λ Excitation 487 nm; λ Emission 535 nm.
# Chain of USP30 (Q70CQ3 57-517): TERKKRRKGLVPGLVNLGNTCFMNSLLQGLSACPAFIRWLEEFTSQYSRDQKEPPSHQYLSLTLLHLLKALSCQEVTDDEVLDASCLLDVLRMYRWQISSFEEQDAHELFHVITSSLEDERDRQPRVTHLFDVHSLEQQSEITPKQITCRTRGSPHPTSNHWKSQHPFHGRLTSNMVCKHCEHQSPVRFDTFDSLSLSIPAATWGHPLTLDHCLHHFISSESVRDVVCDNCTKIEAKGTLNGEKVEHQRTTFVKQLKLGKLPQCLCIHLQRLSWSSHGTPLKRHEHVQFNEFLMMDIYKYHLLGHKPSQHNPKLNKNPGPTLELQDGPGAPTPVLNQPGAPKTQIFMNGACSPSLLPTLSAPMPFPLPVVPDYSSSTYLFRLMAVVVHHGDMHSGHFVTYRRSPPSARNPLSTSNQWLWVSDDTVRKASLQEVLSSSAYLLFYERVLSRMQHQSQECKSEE
row,SMILES,IC50 [nM]
1,"N#CN1CCC(NC(=O)c2ccc(Oc3ccccc3)cc2)C1 (racemic) [Example 15, N-(1-cyanopyrrolidin-3-yl)-4-phenoxybenzamide]",1000 to 10000
2,"N#CN1CCC(NC(=O)Cc2ccc(-c3ccccc3)cc2)C1 (racemic) [Example 16, 2-([1,1′-biphenyl]-4-yl)-N-(1-cyanopyrrolidin-3-yl)acetamide]",1000 to 10000
3,"N#CN1CCC(NC(=O)c2cc(-c3ccccc3)nc3ccccc23)C1 (racemic) [Example 17, N-(1-cyanopyrrolidin-3-yl)-2-phenylquinoline-4-carboxamide]",1000 to 10000
4,"N#CN1CCC(NC(=O)c2ccc(N3CCC(C(N)=O)CC3)nc2)C1 (racemic) [Example 18, 6-(4-carbamoylpiperidin-1-yl)-N-(1-cyanopyrrolidin-3-yl)nicotinamide]",1000 to 10000
5,"CCOC(=O)N1CCN(c2ccc(C(=O)NC3CCN(C#N)C3)cn2)CC1 (racemic) [Example 20, ethyl 4-(5-((1-cyanopyrrolidin-3-yl)carbamoyl)pyridin-2-yl)piperazine-1-carboxylate]",1000 to 10000
6,"N#CN1CCC(NC(=O)c2ccc(N3CCCC3c3cccnc3)nc2)C1 (racemic) [Example 21, N-(1-cyanopyrrolidin-3-yl)-6-(2-(pyridin-3-yl)pyrrolidin-1-yl)nicotinamide]",1000 to 10000
7,"N#CN1CCC(NC(=O)c2cccc(N3CCc4ccccc4C3)n2)C1 (racemic) [Example 25, N-(1-cyanopyrrolidin-3-yl)-6-(3,4-dihydroisoquinolin-2(1H)-yl)picolinamide]",1000 to 10000
8,"N#CN1CCC(NC(=O)c2cccc(N3CCC(Oc4ccccc4)CC3)n2)C1 (racemic) [Example 26, N-(1-cyanopyrrolidin-3-yl)-6-(4-phenoxypiperidin-1-yl)picolinamide]",1000 to 10000
9,"CC(=O)N1CCCN(c2cc(C(=O)NC3CCN(C#N)C3)ccn2)CC1 (racemic) [Example 28, 2-(4-acetyl-1,4-diazepan-1-yl)-N-(1-cyanopyrrolidin-3-yl)isonicotinamide]",1000 to 10000
10,"N#CN1C[C@H]2CCN(C(=O)c3ccc(F)c(-c4ccncc4)c3)[C@H]2C1 (racemic) [Example 57, rac-(3aR,6aR)-1-(4-fluoro-3-(pyridin-4-yl)benzoyl)hexahydropyrrolo[3,4-b]pyrrole-5(1H)-carbonitrile]",100 to 1000
11,"Cn1cc(-c2cc(C(=O)N3CC[C@@H]4CN(C#N)C[C@@H]43)ccc2F)cn1 (racemic) [Example 58, rac-(3aR,6aR)-1-(4-fluoro-3-(1-methyl-1H-pyrazol-4-yl)benzoyl)hexahydropyrrolo[3,4-b]pyrrole-5(1H)-carbonitrile]",100 to 1000
12,"COc1cc(C(=O)N2CC[C@@H]3CN(C#N)C[C@@H]32)ccc1-c1ccncc1Cl (racemic) [Example 59, rac-(3aR,6aR)-1-(4-(3-chloropyridin-4-yl)-3-methoxybenzoyl)hexahydropyrrolo[3,4-b]pyrrole-5(1H)-carbonitrile]",100 to 1000
13,"COc1cc(C(=O)N2CC[C@@H]3CN(C#N)C[C@@H]32)ccc1-c1cnn(C)c1 (racemic) [Example 60, rac-(3aR,6aR)-1-(3-methoxy-4-(1-methyl-1H-pyrazol-4-yl)benzoyl)hexahydropyrrolo[3,4-b]pyrrole-5(1H)-carbonitrile]",1000 to 10000
14,"CO[C@@H]1CCN(c2ccc(C(=O)N[C@H]3CN(C#N)C[C@@H]3C)c(F)c2)C1 (racemic) [Example 92, N-((trans)-1-cyano-4-methylpyrrolidin-3-yl)-2-fluoro-4-((R)-3-methoxypyrrolidin-1-yl)benzamide]",100 to 1000
15,"C[C@@H]1[C@H](NC(=O)c2ccc(-c3ccc(F)cc3)cn2)CCN1C#N (racemic) [Example 174, N-((cis)-1-cyano-2-methylpyrrolidin-3-yl)-5-(4-fluorophenyl)picolinamide]",100 to 1000
16,"Cn1cc(-c2ccc(C(=O)N[C@@H]3CN(C#N)C[C@@H]3C3CC3)cc2F)cn1 (relative stereo) [Example 177, N-((cis)-1-cyano-4-cyclopropylpyrrolidin-3-yl)-3-fluoro-4-(1-methyl-1H-pyrazol-4-yl)benzamide]",100 to 1000

# Next, values leading:
row,IC50 [nM],SMILES
1,100 to 1000,"N#CN1CCC(NC(=O)c2nc(-c3ccccc3)cs2)C1 (racemic) [Example 7, N-(1-cyanopyrrolidin-3-yl)-4-phenylthiazole-2-carboxamide]"
2,< 100,"N#CN1CCC(NC(=O)c2cc(-c3cccc(Cl)c3)no2)C1 (racemic) [Example 8, 3-(3-chlorophenyl)-N-(1-cyanopyrrolidin-3-yl)isoxazole-5-carboxamide]"
3,100 to 1000,"N#CN1CCC(NC(=O)c2cn(-c3ccccc3)cn2)C1 (racemic) [Example 9, N-(1-cyanopyrrolidin-3-yl)-1-phenyl-1H-imidazole-4-carboxamide]"
4,100 to 1000,"N#CN1CCC(NC(=O)C2CC(=O)N(Cc3ccc(F)cc3F)C2)C1 (racemic) [Example 10, N-(1-cyanopyrrolidin-3-yl)-1-(2,4-difluorobenzyl)-5-oxopyrrolidine-3-carboxamide]"
5,100 to 1000,"Cc1noc(C)c1-c1ccc(C(=O)NC2CCN(C#N)C2)cc1 (racemic) [Example 12, N-(1-cyanopyrrolidin-3-yl)-4-(3,5-dimethylisoxazol-4-yl)benzamide]"
6,< 100,"N#CN1CCC(NC(=O)c2ccc(-c3cccc(Cl)c3)cc2)C1 (racemic) [Example 13, 3′-chloro-N-(1-cyanopyrrolidin-3-yl)-[1,1′-biphenyl]-4-carboxamide]"
7,< 100,"COc1ccccc1-c1ccc(C(=O)NC2CCN(C#N)C2)cc1 (racemic) [Example 14, N-(1-cyanopyrrolidin-3-yl)-2′-methoxy-[1,1′-biphenyl]-4-carboxamide]"
8,100 to 1000,"N#CN1CCC(NC(=O)c2ccc(N3CCN(c4ccc(F)cc4F)CC3)nc2)C1 (racemic) [Example 19, N-(1-cyanopyrrolidin-3-yl)-6-(4-(2,4-difluorophenyl)piperazin-1-yl)nicotinamide]"
9,100 to 1000,"N#CN1CCC(NC(=O)c2ccc(N3CCC(c4ccncc4)CC3)nc2)C1 (racemic) [Example 23, N-(1-cyanopyrrolidin-3-yl)-6-(4-(pyridin-4-yl)piperidin-1-yl)nicotinamide]"
10,< 100,"N#CN1C[C@H]2CCN(C(=O)c3cccc(-c4ccccc4)c3)[C@H]2C1 (racemic) [Example 51, rac-(3aR,6aR)-1-([1,1′-biphenyl]-3-carbonyl)hexahydropyrrolo[3,4-b]pyrrole-5(1H)-carbonitrile]"
11,100 to 1000,"N#CN1C[C@H]2CCN(C(=O)c3cc(-c4ccccc4)n[nH]3)[C@H]2C1 (racemic) [Example 52, rac-(3aR,6aR)-1-(3-phenyl-1H-pyrazole-5-carbonyl)hexahydropyrrolo[3,4-b]pyrrole-5(1H)-carbonitrile]"
12,100 to 1000,"N#CN1C[C@H]2CCN(C(=O)c3cc(-c4ccccc4)no3)[C@H]2C1 (racemic) [Example 53, rac-(3aR,6aR)-1-(3-phenylisoxazole-5-carbonyl)hexahydropyrrolo[3,4-b]pyrrole-5(1H)-carbonitrile]"
13,100 to 1000,"N#CN1C[C@H]2CCN(C(=O)c3cn(-c4ccccc4)cn3)[C@H]2C1 (racemic) [Example 54, rac-(3aR,6aR)-1-(1-phenyl-1H-imidazole-4-carbonyl)hexahydropyrrolo[3,4-b]pyrrole-5(1H)-carbonitrile]"
14,100 to 1000,"COc1ccc(-c2cc(C(=O)N3CC[C@@H]4CN(C#N)C[C@@H]43)[nH]n2)cc1 (racemic) [Example 55, rac-(3aR,6aR)-1-(3-(4-methoxyphenyl)-1H-pyrazole-5-carbonyl)hexahydropyrrolo[3,4-b]pyrrole-5(1H)-carbonitrile]"
15,100 to 1000,"COc1ccc(-c2cc(C(=O)N3CC[C@@H]4CN(C#N)C[C@@H]43)on2)cc1 (racemic) [Example 56, rac-(3aR,6aR)-1-(3-(4-methoxyphenyl)isoxazole-5-carbonyl)hexahydropyrrolo[3,4-b]pyrrole-5(1H)-carbonitrile]"
16,< 100,"C[C@H]1CN(C#N)C[C@@H]1NC(=O)c1ccc(N2CCOCC2)c(Cl)c1 (racemic) [Example 175, 3-chloro-N-((trans)-1-cyano-4-methylpyrrolidin-3-yl)-4-morpholinobenzamide]"
17,< 100,"N#CN1C[C@H](NC(=O)c2cnc(-c3ccccc3Cl)s2)[C@@H](O)C1 (relative stereo) [Example 93, 2-(2-chlorophenyl)-N-((trans)-1-cyano-4-hydroxypyrrolidin-3-yl) thiazole-5-carboxamide]"
